# According to US12110295B2, “WD40 repeat domain protein 5 (WDR5) degradation/disruption compounds and methods of use” (Icahn School of Medicine at Mount Sinai, priority 2018, dated 2024):
# Target: WDR5 (Homo sapiens, UniProt P61964)
# Assay: Screening of putative WDR5 degraders by Western blot in MV4;11 and/or MIAPACA2 cells
# Format: cell-based
# Parameters: After WDR5 degrader treatment, cells were collected and lysed; endogenous in cells; host or cells: MV4;11 and/or MIAPACA2
# Settings: summary of screening, FIGS. 6-10
# Procedure: MV4;11 cells were treated with DMSO or indicated compounds at 0.1 μM and 0.5 μM for 18 hours. […]. MIAPACA2 cells were treated with DMSO or indicated compounds at 0.5 μM and 1.0 μM for 18 hours.
# MIAPACA2 cells were treated with DMSO or indicated compounds at 0.1 μM and 0.5 μM for 18 hours.
# MIAPACA2 cells were treated with DMSO or indicated compounds at 0.5 μM and 1.0 μM or at 1.0 μM and 10 μM for 18 hours.
# MV4;11 cells were treated with DMSO or indicated compounds at 0.1 μM and 1.0 μM for 18 hours.
# WDR5 degraders were dissolved in DMSO and DMSO with no degraders was used as the control. 1×10^6 MV4;11 cells or 1×10^5 MIAPACA2 or 2×10^5 Hela cells were seeded in 2 mL medium for each well in […].
# For prescreening of all the compounds, each test compound was added to the medium at indicated concentrations. After 18 h treatment, cells were collected.
# After WDR5 degrader treatment, cells were collected and lysed. Total cell lysates were used for western blot. The following primary antibodies were used: WDR5 (Santa Cruz), vinculin (Cell Signaling Technology), tubulin (Cell Signaling Technology), GAPDH (Santa Cruz). Blots were imaged using fluorescence-labeled secondary antibodies on ChemiDoc™ Imaging Systems.
row,SMILES,effective degradation of WDR5 in MV4;11 and/or MIAPACA2 cells
1,"Cc1ncsc1-c1ccc(CNC(=O)[C@@H]2C[C@@H](O)CN2C(=O)[C@@H](NC(=O)CCCCCCCCCCCC(=O)NCCN2CCN(Cc3cccc(-c4ccc(N5CCN(C)CC5)c(NC(=O)c5c[nH]c(=O)cc5C(F)(F)F)c4)c3)CC2)C(C)(C)C)cc1 [XF050-161, N^1-((S)-1-((2S,4R)-4-hydroxy-2-((4-(4-methylthiazol-5-yl)benzyl)carbamoyl)pyrrolidin-1-yl)-3,3-dimethyl-1-oxobutan-2-yl)-N^13-(2-(4-((4′-(4-methylpiperazin-1-yl)-3′-(6-oxo-4-(trifluoromethyl)-1,6-dihydropyridine-3-carboxamido)-[1,1′-biphenyl]-3-yl)methyl)piperazin-1-yl)ethyl)tridecanediamide]",able to effectively degrade WDR5
2,"Cc1ncsc1-c1ccc(CNC(=O)[C@@H]2C[C@@H](O)CN2C(=O)[C@@H](NC(=O)CCCCCCCC(=O)N2CC=C(c3cc(NC(=O)c4c[nH]c(=O)cc4C(F)(F)F)c(N4C[C@@H](C)N(C)[C@@H](C)C4)cc3F)CC2)C(C)(C)C)cc1 [XF078-44, N-(4-fluoro-5-(1-(9-(((S)-1-((2S,4R)-4-hydroxy-2-((4-(4-methylthiazol-5-yl)benzyl)carbamoyl)pyrrolidin-1-yl)-3,3-dimethyl-1-oxobutan-2-yl)amino)-9-oxononanoyl)-1,2,3,6-tetrahydropyridin-4-yl)-2-((3S,5R)-3,4,5-trimethylpiperazin-1-yl)phenyl)-6-oxo-4-(trifluoromethyl)-1,6-dihydropyridine-3-carboxamide]",able to effectively degrade WDR5
3,"Cc1ncsc1-c1ccc(CNC(=O)[C@@H]2C[C@@H](O)CN2C(=O)[C@@H](NC(=O)CCOCCC(=O)NCCN2CCN(Cc3ccc(F)c(-c4ccc(N5C[C@@H](C)N(C)[C@@H](C)C5)c(NC(=O)c5c[nH]c(=O)cc5C(F)(F)F)c4)c3)CC2)C(C)(C)C)cc1 [XF078-2, N-(2′-fluoro-5′-((4-(2-(3-(3-(((S)-1-((2S,4R)-4-hydroxy-2-((4-(4-methylthiazol-5-yl)benzyl)carbamoyl)pyrrolidin-1-yl)-3,3-dimethyl-1-oxobutan-2-yl)amino)-3-oxopropoxy)propanamido)ethyl)piperazin-1-yl)methyl)-4-((3S,5R)-3,4,5-trimethylpiperazin-1-yl)-[1,1′-biphenyl]-3-yl)-6-oxo-4-(trifluoromethyl)-1,6-dihydropyridine-3-carboxamide]",able to effectively degrade WDR5
4,"C[C@@H]1CN(c2ccc(-c3ccc(C(=O)NCCCCCCCCNc4cccc5c4C(=O)N(C4CCC(=O)NC4=O)C5=O)cc3F)cc2NC(=O)c2c[nH]c(=O)cc2C(F)(F)F)C[C@H](C)N1C (stereo partly drawn) [XF056-186, N-(4′-((8-((2-(2,6-dioxopiperidin-3-yl)-1,3-dioxoisoindolin-4-yl)amino)octyl)carbamoyl)-2′-fluoro-4-((3R,5S)-3,4,5-trimethylpiperazin-1-yl)-[1,1′-biphenyl]-3-yl)-6-oxo-4-(trifluoromethyl)-1,6-dihydropyridine-3-carboxamide]",able to effectively degrade WDR5
5,"Cc1ncsc1-c1ccc([C@H](C)NC(=O)[C@@H]2C[C@@H](O)CN2C(=O)[C@@H](NC(=O)CCCCCCCCCC(=O)N2CCN(c3ccc(-c4cc(NC(=O)c5c[nH]c(=O)cc5C(F)(F)F)c(N5C[C@@H](C)N(C)[C@@H](C)C5)cc4F)cn3)CC2)C(C)(C)C)cc1 [XF067-134, N-(4-fluoro-5-(6-(4-(11-(((S)-1-((2S,4R)-4-hydroxy-2-(((S)-1-(4-(4-methylthiazol-5-yl)phenyl)ethyl)carbamoyl)pyrrolidin-1-yl)-3,3-dimethyl-1-oxobutan-2-yl)amino)-11-oxoundecanoyl)piperazin-1-yl)pyridin-3-yl)-2-((3S,5R)-3,4,5-trimethylpiperazin-1-yl)phenyl)-6-oxo-4-(trifluoromethyl)-1,6-dihydropyridine-3-carboxamide]",able to effectively degrade WDR5
6,"C[C@@H]1CN(c2ccc(-c3cc(CN4CCN(CCNC(=O)CCCCCCCNc5cccc6c5C(=O)N(C5CCC(=O)NC5=O)C6=O)CC4)ccc3F)cc2NC(=O)c2c[nH]c(=O)cc2C(F)(F)F)C[C@H](C)N1C (stereo partly drawn) [XF078-24, N-(5′-((4-(2-(8-((2-(2,6-dioxopiperidin-3-yl)-1,3-dioxoisoindolin-4-yl)amino)octanamido)ethyl)piperazin-1-yl)methyl)-2′-fluoro-4-((3S,5R)-3,4,5-trimethylpiperazin-1-yl)-[1,1′-biphenyl]-3-yl)-6-oxo-4-(trifluoromethyl)-1,6-dihydropyridine-3-carboxamide]",able to effectively degrade WDR5
7,"C[C@@H]1CN(c2ccc(-c3cc(CN4CCN(CCNC(=O)CCOCCOCCOCCOCCOCCNc5cccc6c5C(=O)N(C5CCC(=O)NC5=O)C6=O)CC4)ccc3F)cc2NC(=O)c2c[nH]c(=O)cc2C(F)(F)F)C[C@H](C)N1C (stereo partly drawn) [XF078-29, N-(5′-((4-(1-((2-(2,6-dioxopiperidin-3-yl)-1,3-dioxoisoindolin-4-yl)amino)-18-oxo-3,6,9,12,15-pentaoxa-19-azahenicosan-21-yl)piperazin-1-yl)methyl)-2′-fluoro-4-((3S,5R)-3,4,5-trimethylpiperazin-1-yl)-[1,1′-biphenyl]-3-yl)-6-oxo-4-(trifluoromethyl)-1,6-dihydropyridine-3-carboxamide]",able to effectively degrade WDR5
8,"C[C@@H]1CN(c2cc(F)c(-c3cnc(N4CCN(C(=O)CCCCCCNc5cccc6c5C(=O)N(C5CCC(=O)NC5=O)C6=O)CC4)nc3)cc2NC(=O)c2ccc(F)cc2C(F)(F)F)C[C@H](C)N1C (stereo partly drawn) [XF078-121, N-(5-(2-(4-(7-((2-(2,6-dioxopiperidin-3-yl)-1,3-dioxoisoindolin-4-yl)amino)heptanoyl)piperazin-1-yl)pyrimidin-5-yl)-4-fluoro-2-((3S,5R)-3,4,5-trimethylpiperazin-1-yl)phenyl)-4-fluoro-2-(trifluoromethyl)benzamide]",able to effectively degrade WDR5
9,"Cc1ncsc1-c1ccc(CNC(=O)[C@@H]2C[C@@H](O)CN2C(=O)[C@@H](NC(=O)COCC(=O)N2CC=C(c3cc(NC(=O)c4c[nH]c(=O)cc4C(F)(F)F)c(N4C[C@@H](C)N(C)[C@@H](C)C4)cc3F)CC2)C(C)(C)C)cc1 [XF078-30, N-(4-fluoro-5-(1-(2-(2-(((S)-1-((2S,4R)-4-hydroxy-2-((4-(4-methylthiazol-5-yl)benzyl)carbamoyl)pyrrolidin-1-yl)-3,3-dimethyl-1-oxobutan-2-yl)amino)-2-oxoethoxy)acetyl)-1,2,3,6-tetrahydropyridin-4-yl)-2-((3S,5R)-3,4,5-trimethylpiperazin-1-yl)phenyl)-6-oxo-4-(trifluoromethyl)-1,6-dihydropyridine-3-carboxamide]",able to effectively degrade WDR5
10,"Cc1ncsc1-c1ccc(CNC(=O)[C@@H]2C[C@@H](O)CN2C(=O)[C@@H](NC(=O)CCCCCCCCCCCCC(=O)NCCN2CCN(Cc3cccc(-c4ccc(N5CCN(C)CC5)c(NC(=O)c5c[nH]c(=O)cc5C(F)(F)F)c4)c3)CC2)C(C)(C)C)cc1 [XF050-162, N^1-((S)-1-((2S,4R)-4-hydroxy-2-((4-(4-methylthiazol-5-yl)benzyl)carbamoyl)pyrrolidin-1-yl)-3,3-dimethyl-1-oxobutan-2-yl)-N^14-(2-(4-((4′-(4-methylpiperazin-1-yl)-3′-(6-oxo-4-(trifluoromethyl)-1,6-dihydropyridine-3-carboxamido)-[1,1′-biphenyl]-3-yl)methyl)piperazin-1-yl)ethyl)tetradecanediamide]",able to effectively degrade WDR5
11,"Cc1ncsc1-c1ccc(CNC(=O)[C@@H]2C[C@@H](O)CN2C(=O)[C@@H](NC(=O)CCOCCOCCOCCOCCC(=O)N2CCN(c3ncc(-c4cc(NC(=O)c5ccc(F)cc5C(F)(F)F)c(N5C[C@@H](C)N(C)[C@@H](C)C5)cc4F)cn3)CC2)C(C)(C)C)cc1 [XF078-105, (2S,4R)-1-((S)-2-(tert-butyl)-19-(4-(5-(2-fluoro-5-(4-fluoro-2-(trifluoromethyl)benzamido)-4-((3S,5R)-3,4,5-trimethylpiperazin-1-yl)phenyl)pyrimidin-2-yl)piperazin-1-yl)-4,19-dioxo-7,10,13,16-tetraoxa-3-azanonadecanoyl)-4-hydroxy-N-(4-(4-methylthiazol-5-yl)benzyl)pyrrolidine-2-carboxamide]",able to effectively degrade WDR5
12,"C[C@@H]1CN(c2ccc(-c3cc(CN4CCN(CCNC(=O)CCOCCOCCOCCNc5cccc6c5C(=O)N(C5CCC(=O)NC5=O)C6=O)CC4)ccc3F)cc2NC(=O)c2c[nH]c(=O)cc2C(F)(F)F)C[C@H](C)N1C (stereo partly drawn) [XF078-27, N-(5′-((4-(1-((2-(2,6-dioxopiperidin-3-yl)-1,3-dioxoisoindolin-4-yl)amino)-12-oxo-3,6,9-trioxa-13-azapentadecan-15-yl)piperazin-1-yl)methyl)-2′-fluoro-4-((3S,5R)-3,4,5-trimethylpiperazin-1-yl)-[1,1′-biphenyl]-3-yl)-6-oxo-4-(trifluoromethyl)-1,6-dihydropyridine-3-carboxamide]",able to effectively degrade WDR5
